{P} = phosphate

The values below come from patent US7033829B2, “Method to inhibit cell growth using oligonucleotides” (Trustees of Boston University, priority 2000, dated 2006).

The subject of one series is TNF-α gene. As to the kind of experiment: TNFα promoter CAT reporter transgene in skin. As to conditions: intracutaneous pTpT 100 μM; LPS 1 μg/ml. The format is in vivo, mice. How it is done: In another experiment, TNF-α gene activation was measured by utilizing mice carrying a CAT reporter transgene bearing the entire TNFα promoter and 3′-untranslated region. Transgenic mice were subjected to the following treatment prior to skin assay for CAT expression: UVB irradiation (200–700 J/m^2), intracutaneous injection of pTpT (100 μM); lipopolysaccharide (LPS 1 μg/ml) as positive control, or vehicle alone.

In series [1] the test system is GADD 45, ERCC 3 and SDI 1 mRNA. As to the kind of experiment: Northern blot of GADD 45, ERCC 3 and SDI 1 in SCC12F cells. The format is cell-based, human. Particulars: 100 μM; as early as 24 hours, several days. Here is the method:
Paired cultures of SCC12F cells were maintained in a Dulbecco's modified Eagle's Medium-based keratinocyte growth medium (DMEM; GIBCO/BRL, Gaithersburg, Md.) supplemented with 10% fetal calf serum (Hyclone Labs, Logan, Utah) and epidermal growth factor as described (Hollander, M. C. et al., J. Biol. Chem. 268:328–336 (1992)). Pre-confluent cultures were given fresh medium supplemented with either 100 μM T2, or an equal volume of diluent. Cells were collected daily after additions, and processed for total RNA isolation using the Tri-Reagent extraction method (Molecular Research Center, Cincinnati, Ohio) following the protocol of the manufacturer. Ten micrograms of RNA from each sample was gel electrophoresed, transferred to a nylon filter and probed as described previously (Nada, A. et al., Exp. Cell Res. 211:90–98 (1994)). The cDNA for GADD 45 was generated by PCR using primers based on the human GADD 45 gene sequence (Mitsudomi, T. et al., Oncogene 7:171–180 (1992)). The cDNA for ERCC 3 was purchased from the American Type Culture Collection (ATCC, Rockville, Md.). The SDI 1 cDNA was a gift of Dr. J. Smith and has been described previously (Walworth, N.C. and Bernards, R., Science 271:353–356 (1996)).

The subject of the next series is contact hypersensitivity. As to the kind of experiment: Contact hypersensitivity to DNFB (ear swelling). The class given is in vivo, C57B16 mice. As to conditions: 30 μl of 100 μM BID×5d topical to abdominal skin before sensitization. How it is done: C57B16 mice were subjected to the following treatment prior to sensitization with the allergen DNFB, by topical administration to abdominal skin; no pretreatment, UVB irradiation (200 J/m^2/dx4d), pTpT, pApA, or vehicle alone (30 μl of 100 μM BID×5d).

Series [2] has as its system Human squamous carcinoma cell line SCC12F cells. As to the kind of experiment: Cell growth / cell yield of SCC12F cells (Coulter counter). As to conditions: 100 μM; days 1, 3, 4, 5 after dosage. The format is cell-based. Here is the method: Human squamous carcinoma cell line SCC12F cells were maintained in primary keratinocyte medium (300 ml DME, 100 ml F-12 nutrient supplement, 50 ml 10× adenine, 50 ml fetal bovine serum, 5 ml penicillin/streptomycin stock, and 0.5 ml of 10 μg/ml epidermal growth factor and hydrocortisone to final concentration of 1.4 μg/ml) and dosed with either water (diluent), 100 μM pTpT (T2, Midland Certified Reagent Company, Midland, Tex.) or 100 μM pdApdA (A2). Cells were harvested before dosing (day 0), and 1, 3, 4, and 5 days after dosage, and were counted by Coulter™ counter. After harvesting, the cells were processed for total RNA isolation and were analyzed by Northern blot. Addition of a control deoxyadenine dinucleotide (pdApdA), a compound very similar to pTpT but not readily dimerized by UV irradiation, and therefore rarely excised during the course of UV-induced DNA repair, has no effect.
In a second experiment, SCC12F cells were cultured as described above. Two or three days after seeding, the preconfluent cultures were given fresh medium supplemented with either 100 μM T2 or diluent as a control. Cells were collected daily by trypsinization and counted by Coulter™ counter. The cell yield in cultures treated with T2 was reduced by […] compared to that of paired control cultures after five days (FIG. 2). This corresponds to 2.3 population doublings in this time for control cells, compared with 1 doubling for T2-treated cells.
pTpT was previously found to inhibit cell cycle progression, at least in part through activation of p53 and subsequent upregulation of the cyclin dependent kinase inhibitor p21. Cultures of the human keratinocyte line SCC12F were treated with pTpT, SEQ ID NO: 1, SEQ ID NO: 6 or diluent alone as a negative control, collected and counted 48 hours later and processed for northern blot analysis of p21 mRNA expression. […] Thus, the sequences of the present invention activate p53 and inhibit cell proliferation similar to the effect of pTpT.
Exposure of keratinocytes to UVB irradiation affects the expression of genes involved in cell cycle arrest, DNA repair and cytokine production. Single-stranded oligonucleotides sharing sequence homology with the telomere 3′ overhang, when introduced into cells, mimic these UV effects. To identify other genes that may be similarly modulated, cells of keratinocyte origin (SCC12F; a human epidermal squamous cell carcinoma line provided by Dr. James Rheinwald of Harvard University) were exposed to solar simulated irradiation (SSR) (20 mJ/cm^2, measured at 285±5 nm), to an 11-base oligonucleotide (pGTTAGGGTTAG; SEQ ID NO:5) homologous to the telomere overhang (T-oligo), or to a complementary sequence as control [pCTAACCCTAAC; (SEQ ID NO:9) control oligonucleotide]. […] These are mitochondrial-transcribed genes whose encoded proteins participate in cellular respiration.

For series [3], the system named is Cloudman S91 mouse melanoma cells. Nature of the series: Melanin content of Cloudman S91 melanoma cells. The class given is cell-based. As to conditions: FIG. 16. How it is done: The induction of melanogenesis in Cloudman S91 mouse melanoma cells by a five-nucleotide oligomer CATAC (SEQ ID NO: 6) and a nine-nucleotide oligomer, GAGTATGAG (SEQ ID NO: 1) was examined. Duplicates of Cloudman S91 murine melanoma cells were incubated with either 100 μM oligo or an equal volume of diluent (H2O) for 5 days. The cells were then collected, counted, and an equal number of cells were pelleted for melanin analysis. […] Variations of this oligonucleotide were evaluated: a scrambled 9-mer (TAGGAGGAT; SEQ ID NO: 2) and two truncated versions, a 7-mer (AGTATGA; SEQ ID NO: 3) and second 5-mer (GTATG; SEQ ID NO: 4). […] The truncated versions (SEQ ID NOs: 3 and 4) were also active, inducing 640% and 670% increases, respectively.
Cultures of Cloudman S91 murine melanoma cells were treated for 5 days with SEQ ID NO: 1, SEQ ID NO: 6, pTpT as a positive control, or an equal volume of diluent as a negative control. […] SEQ ID NO: 6 produced a slight increase in melanin, to 165+/−77% of control levels. SEQ ID NO: 1 stimulated melanin content to an average of 600+/−260% of control levels.
pTpT, shown previously to stimulate pigmentation in these cells, was used as a reference treatment, and diluent alone was used as a negative control. After five days of treatment with the oligonucleotides, the cells were collected, counted, and an equal number of cells were pelleted for melanin analysis. […] SEQ ID NO: 5, representing the telomere over-hang sequence, also at 10 μM, increased the melanin level to 10 times that of control cells.
S91 cells were cultured in the presence of diluent alone, pTpT p9mer (SEQ ID NO: 1), p7mer (AGTATGA; SEQ ID NO: 7) or p5mer #2 (SEQ ID NO: 4). […] Both SEQ ID NOS: 4 and 7 stimulated a 7–8 fold increase in melanin.
S91 cells were cultured for 5 days in the presence of the thymidine dinucleotides or SEQ ID NO: 1 with or without a 5′ phosphate or diluent alone as a negative control.
Cultures of S91 mouse melanoma cells (100,000 cells/38 cm^2) were treated with 100 μM pTpT or phosphorothioate pTpT (pTspT) (FIG. 22) or 40 μM 11mer-1 or the phosphorothioate 11mer-1 (11mer-1-S) (FIG. 23) for 6 days and were then collected, counted and assayed for melanin content.
Duplicate cultures of S91 cells (100,000 cells/39 cm^2) were either sham-irradiated or irradiated with 5 mJ/cm^2 solar-simulated light from a 1 kW xenon arc solar-simulator (XMN 1000-21, Optical Radiation, Azuza, Calif.) metered at […] using a research radiometer (model IL1700A, International Light, Newburyport, Mass.). Two sham-irradiated plates were then supplemented with 100 μM pTspT and two irradiated cultures were similarly treated with pTspT. After one week, cells were collected, counted and analyzed for melanin content by dissolving the cell pellets in 1 N NaOH and measuring the optical density at […]. […] However, this response was blocked by the addition of pTspT (FIG. 24). In addition, the constitutive pigmentation of these cells was reduced by the pTspT in the sham-irradiated cultures, similar to the data presented in FIGS. 22 and 23.

A further series has as its system S91 cells. As to the kind of experiment: Cellular uptake of FAM-labeled oligonucleotides in S91 cells. The class given is in vitro ADME, mouse. As to conditions: 4 hours. How it is done: Fluorescein phosphoramidite (FAM) labeled oligonucleotides were added to cultures of S91 cells for 4 hours and the cells were then prepared for confocal microscopy. Nuclei, identified by staining with propidium iodide, appeared red and FAM-labeled oligonucleotides appeared green. Co-localization of red and green signals was assigned a yellow color by the computer. […] There was no change in the profile of oligonucleotide uptake after 6 and 24 hours.

Take “lipopolysaccharide [LPS, reference compound]”: in the series with TNF-α gene, the “CAT activity in skin” value is listed as “CAT activity was detected”.

In the case of “deoxyadenine dinucleotide [pdApdA, reference compound]”, the “mRNAs for GADD 45, ERCC 3 and SDI 1” value in series [1] is listed as “less effective or ineffective”. Also, in the series with contact hypersensitivity, the “ear swelling responses to DNFB challenge” value is on record as 2.5±0.6. Further, in series [2], the cell growth rate result was “has no effect”.

For the substance “pGCATGCATGCATTACGTACG (DNA, 5' {P}, backbone not given here) [SEQ ID NO: 8]”, in series [3], the “pigmentation relative to control cells” value was “twice the level of control cells”. Besides, the “cellular uptake and localization (confocal microscopy, FACS)” value with S91 cells is “pattern of fluorescence very similar to that seen with phosphorylated SEQ ID NO: 1”.
